{VP} = (E)-vinylphosphonate; m = 2'-O-methyl; f = 2'-fluoro
What was measured:
CNNM4 mRNA [1] = experiment: CNNM4 mRNA in liver of wild-type mice after single subcutaneous dose (Examples 12-14); format: in vivo, mouse; settings: wild-type C57BL/6 mice
Description: (§1) Five- to seven-week old male C57BL/6 mice were treated with a single dose of 1 or 5 mg siRNA conjugate per kg body weight by subcutaneous injection. Control groups received a subcutaneous injection with the vehicle PBS. Two weeks after the treatment, liver samples were collected from all mice and snap frozen. RNA was extracted from liver samples and CNNM4 and Actin mRNA levels were determined by Taqman qRT-PCR. Values obtained for CNNM4 mRNA were normalized to values generated for the housekeeping gene Actin and related to mean of untreated sample (ut) set at 1-fold target gene expression. Each bar represents mean value from 6 animals +/-SD.
Five- to seven-week old male C57BL/6 mice were treated with a single dose of 0.3 or 1 mg siRNA conjugate per kg body weight by subcutaneous injection. Control groups received a subcutaneous injection with the vehicle PBS. Two weeks after the treatment, liver samples were collected from all mice and snap frozen. RNA was extracted from liver samples and CNNM4 and Actin mRNA levels were determined by Taqman qRT-PCR. Values obtained for CNNM4 mRNA were normalized to values generated for the housekeeping gene Actin and related to mean of untreated sample (ut) set at 1-fold target gene expression. Each bar represents mean value from 6 animals +/-SD.
as §1, with “1” for “1 or 5”, “Five” for “Two”, “PBS treated cohort (PBS)” for “untreated sample (ut)”

CNNM4 mRNA [2] = experiment: CNNM4 mRNA in liver of DIO-NASH mice (Example 24); format: in vivo, mouse; settings: 1 mg/kg or 5 mg/kg s.c. at 4, 8 and 12 weeks, liver 4 weeks after last treatment, FIG. 30
Description: 5-week old C57BL/6 male mice were maintained on a DIO-NASH diet for about 32 weeks and randomized based on pre-liver biopsy fibrosis and steatosis score. Only animals with fibrosis score of ≥ 1 and steatosis score of ≥ 2 were included in the study. Animals were then maintained on DIO-NASH diet for another 16 weeks. At the 4 week, 8 week, and 12 week time points after the pre liver biopsy mice were treated with 1 mg/kg or 5 mg/kg EU422, respectively or with the vehicle PBS by subcutaneous injection. 4 weeks after the last treatment, liver samples were collected from all mice and snap frozen. RNA was extracted from liver samples and CNNM4 and HPRT mRNA levels were determined by Taqman qRT-PCR. Values obtained for CNNM4 mRNA were normalized to values generated for the house keeping gene HPRT and related to mean of untreated sample (ut) set at 1-fold target gene expression. Each bar represents mean value from 15 animals +/-SD.

Substance: EU422: CNNM4 siRNA conjugate, duplex EU422A/EU422B; consists of SEQ ID NO: 461 and SEQ ID NO: 462 (chain 1 UGACAAAAGACACAAGAGU; chain 2 ACUCUUGUGUCUUUUGUCA; chain 1: sugars from the 5' end mfmfmfmfmfmfmfmfmfm, 5' {VP}, backbone not given here; chain 2: sugars from the 5' end m6 f3 m10, backbone not given here; undefined (ps2) end linkages, 5' conjugate ST23/ST41 on second strand, further chemistry not fully specified)
- CNNM4 mRNA levels in the liver (CNNM4 mRNA [1]; five weeks after single dose of 1 mg/kg s.c., FIG. 20): reduction of CNNM4 mRNA levels
- CNNM4 mRNA levels in the liver (CNNM4 mRNA [1]; two weeks after single dose of 0.3 or 1 mg/kg s.c., FIG. 19): reduction of CNNM4 mRNA levels
- CNNM4 mRNA levels in the liver (CNNM4 mRNA [2]): dose dependent reduction of CNNM4 mRNA levels

Reference: patent US20230265438A1, “NUCLEIC ACIDS FOR INHIBITING EXPRESSION OF CNNM4 IN A CELL” (ASOCIACIÓN CENTRO DE INVESTIGACIÓN COOPERATIVA EN …, priority 2020, published 2023)
